This is an account of results in patent US12570615B2, “Quinazolinone derivatives” (Hoffmann-La Roche Inc., priority 2021, dated 2026).

Experiment [1] concerns P-ERK (ERK phospho-T202/Y204) in HCT116 cells expressing WT BRAF. In words: HTRF assay for P-ERK determination in HCT116 cells (BRAF activation). In kind it is cell-based. Particulars: Homo sapiens, HCT-116, drug incubation 1 hour, concentration giving 50% of the maximum activation achieved by Dabrafenib. An outline of the steps: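 HCT116 cells (WT BRAF) were treated for 1 h at 37 °C in duplicate with compounds from 10 μM to 0.001 μM, then lysed. Phospho-ERK (T202/Y204) was read by HTRF at 665/620 nm. EC50 was taken from sigmoidal or bell-shaped fits, with DMSO set as 0% and the maximal dabrafenib signal as 100%.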

The test system of experiment [2] is P-ERK (ERK phospho-T202/Y204) in A375 cells expressing V600E mutated BRAF. In words: HTRF assay for P-ERK determination in A375 cells (BRAF inhibition). Format: cell-based. As to conditions: Homo sapiens, A-375, P-ERK level, drug incubation 1 hour, DMSO = 100%, 10 μM Dabrafenib = 0%. An outline of the steps:
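A375 cells (8000/well) in DMEM with 10% FBS, plated overnight at 37 °C, then treated with compound at 0.001-10 μM final for 1 h. After lysis, ERK phospho-T202/Y204 was read by HTRF (665/620 nm ratio, blank-subtracted). Normalised to DMSO (100%) and 10 μM dabrafenib (0%); IC50 from sigmoidal fit.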

For the next experiment, the target named is BRAF (wt) (Homo sapiens, UniProt P15056). Briefly: KD BRAF (wt) (Table 1). Format: binding.
Sequence of BRAF (wt) (P15056 whole entry): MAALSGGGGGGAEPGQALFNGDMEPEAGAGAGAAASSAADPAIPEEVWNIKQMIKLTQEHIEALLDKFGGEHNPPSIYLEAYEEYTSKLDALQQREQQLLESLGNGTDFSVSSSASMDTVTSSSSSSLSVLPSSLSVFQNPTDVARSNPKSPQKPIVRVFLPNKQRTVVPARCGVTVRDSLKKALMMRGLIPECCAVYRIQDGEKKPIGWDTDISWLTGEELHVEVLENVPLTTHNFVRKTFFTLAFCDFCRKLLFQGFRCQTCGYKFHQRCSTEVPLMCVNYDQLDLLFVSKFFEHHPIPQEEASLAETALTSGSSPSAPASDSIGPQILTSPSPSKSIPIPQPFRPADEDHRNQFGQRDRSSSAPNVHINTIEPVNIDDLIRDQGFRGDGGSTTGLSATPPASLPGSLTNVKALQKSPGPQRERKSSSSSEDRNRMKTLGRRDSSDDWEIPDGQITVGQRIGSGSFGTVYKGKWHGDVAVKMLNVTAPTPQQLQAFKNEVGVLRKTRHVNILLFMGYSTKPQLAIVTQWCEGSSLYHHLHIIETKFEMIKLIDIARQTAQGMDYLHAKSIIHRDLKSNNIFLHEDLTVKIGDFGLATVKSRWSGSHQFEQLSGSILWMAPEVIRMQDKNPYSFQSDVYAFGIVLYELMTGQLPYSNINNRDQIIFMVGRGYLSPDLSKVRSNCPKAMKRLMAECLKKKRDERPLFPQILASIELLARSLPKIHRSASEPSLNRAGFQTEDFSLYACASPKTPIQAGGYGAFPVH
A further experiment deals with BRAF (V600E) (Homo sapiens, UniProt P15056, V600E). In words: KD BRAF (V600E) (Table 1). Format: binding.
Sequence of BRAF (V600E) (P15056 whole entry V600E): as the sequence (P15056 whole entry) above, with V600E counted along it

Counter-ions that a name gives are not always drawn.

`CCN(C)S(=O)(=O)Nc1cccc(Nc2ccc3ncn(CC4CCN(C(=O)OC(C)(C)C)CC4)c(=O)c3c2)c1C#N` [Example 32, tert-butyl 4-[[6-[2-cyano-3-[[ethyl(methyl)sulfamoyl]amino]anilino]-4-oxo-quinazolin-3-yl]methyl]piperidine-1-carboxylate] displayed an EC50 in experiment [1] of at least 10 µM. The compound also registered an IC50 in experiment [2] of 428 nM. The Kd is 210 nM at BRAF (wt) and 813 nM at BRAF (V600E).
With `CCN(C)S(=O)(=O)Nc1cccc(Nc2ccc3ncn(CC4CCN(C(C)=O)CC4)c(=O)c3c2)c1C#N` [Example 33, 3-[(1-acetyl-4-piperidyl)methyl]-6-[2-cyano-3-[[ethyl(methyl)sulfamoyl]amino]anilino]-4-oxo-quinazoline], in experiment [1], the concentration giving a half-maximal response (EC50) was at least 10 µM. Further, the IC50 in experiment [2] worked out at 576 nM. In addition, the Kd at BRAF (wt) was 45.6 nM; at BRAF (V600E) it was 92.9 nM.
Taken in the same sequence, the figures for `CCN(C)S(=O)(=O)Nc1cccc(Nc2ccc3ncn(CCOCCOCCNC(=O)OC(C)(C)C)c(=O)c3c2)c1C#N` [Example 34, tert-butyl N-[2-[2-[2-[6-[2-cyano-3-[[ethyl(methyl)sulfamoyl]amino]anilino]-4-oxo-quinazolin-3-yl]ethoxy]ethoxy]ethyl]carbamate] were at least 10 µM, 287 nM, 91.9 nM and 247 nM.
Taken in the same sequence, the figures for `CC(C)(C)OC(=O)CCCn1cnc2ccc(Nc3cccc(NS(=O)(=O)N4CC[C@@H](F)C4)c3C#N)cc2c1=O` [Example 35, tert-butyl 4-[6-[2-cyano-3-[[(3R)-3-fluoropyrrolidin-1-yl]sulfonylamino]anilino]-4-oxo-quinazolin-3-yl]butanoate] were 7.22 µM, 12.9 nM, 7.92 nM and 20.9 nM.
Taken in the same sequence, the figures for `N#Cc1c(Nc2ccc3ncn(CCOCc4ccccc4)c(=O)c3c2)cccc1NS(=O)(=O)N1CC[C@@H](F)C1` [Example 36, (3R)—N-[3-[[3-(2-benzyloxyethyl)-4-oxo-quinazolin-6-yl]amino]-2-cyano-phenyl]-3-fluoro-pyrrolidine-1-sulfonamide] were at least 10 µM, 114 nM, 131 nM and 273 nM.
Consider `CC(C)(C)OC(=O)N1CCC(CCn2cnc3ccc(Nc4cccc(NS(=O)(=O)N5CC[C@@H](F)C5)c4C#N)cc3c2=O)CC1` [Example 37, tert-butyl 4-[2-[6-[2-cyano-3-[[(3R)-3-fluoropyrrolidin-1-yl]sulfonylamino]anilino]-4-oxo-quinazolin-3-yl]ethyl]piperidine-1-carboxylate], for which the EC50 in experiment [1] turned out to be 4.47 µM. Moreover, in experiment [2], the IC50 was determined as 80.6 nM. The Kd on BRAF (wt) was 20.8 nM; at BRAF (V600E), 43.7 nM.
The like results for `CCN(C)S(=O)(=O)Nc1cccc(Nc2ccc3ncn(CCOCCOCCN)c(=O)c3c2)c1C#N` [Example 38, 3-[2-[2-(2-aminoethoxy)ethoxy]ethyl]-6-[2-cyano-3-[[ethyl(methyl)sulfamoyl]amino]anilino]-4-oxo-quinazoline hydrochloride] were, in that order, at least 10 µM, 5740 nM, 174 nM and 443 nM.
The like results for `N#Cc1c(Nc2ccc3ncn(CCCC(=O)O)c(=O)c3c2)cccc1NS(=O)(=O)N1CC[C@@H](F)C1` [Example 39, 4-[6-[2-cyano-3-[[(3R)-3-fluoropyrrolidin-1-yl]sulfonylamino]anilino]-4-oxo-quinazolin-3-yl]butanoic acid] were, in that order, at least 10 µM, at least 10000 nM, 11.6 nM and 48.3 nM.
Taken in the same sequence, the figures for `CC(C)(C)OC(=O)N1CCN(C(=O)CCCn2cnc3ccc(Nc4cccc(NS(=O)(=O)N5CC[C@@H](F)C5)c4C#N)cc3c2=O)CC1` [Example 40, tert-butyl 4-[4-[6-[2-cyano-3-[[(3R)-3-fluoropyrrolidin-1-yl]sulfonylamino]anilino]-4-oxo-quinazolin-3-yl]butanoyl]piperazine-1-carboxylate] were at least 10 µM, 334 nM, 3.71 nM and 7.88 nM.
As to `CC(C)(C)OC(=O)N1CCC(NC(=O)CCCn2cnc3ccc(Nc4cccc(NS(=O)(=O)N5CC[C@@H](F)C5)c4C#N)cc3c2=O)CC1` [Example 41], in experiment [1], the EC50 was at least 10 µM. In addition, the IC50 in experiment [2] stood at 1510 nM. Moreover, the Kd was 6.19 nM at BRAF (wt) and 9.29 nM at BRAF (V600E).
Taken in the same sequence, the figures for `CN(C1CC1)S(=O)(=O)Nc1cccc(Nc2ccc3ncn(CCCC(=O)OC(C)(C)C)c(=O)c3c2)c1C#N` [Example 42, tert-butyl 4-[6-[2-cyano-3-[[cyclopropyl(methyl)sulfamoyl]amino]anilino]-4-oxo-quinazolin-3-yl]butanoate] were 6.2 µM, 162 nM, 79.2 nM and 203 nM.
Taken in the same sequence, the figures for `CC(C)(C)OC(=O)NCCCn1cnc2ccc(Nc3cccc(NS(=O)(=O)N4CC[C@@H](F)C4)c3C#N)cc2c1=O` [Example 43, tert-butyl N-[3-[6-[2-cyano-3-[[(3R)-3-fluoropyrrolidin-1-yl]sulfonylamino]anilino]-4-oxo-quinazolin-3-yl]propyl]carbamate] were 5.61 µM, 74.6 nM, 4.47 nM and 7.18 nM.
The like results for `N#Cc1c(Nc2ccc3ncn(CCCc4ccccc4)c(=O)c3c2)cccc1NS(=O)(=O)N1CC[C@@H](F)C1` [Example 44, (3R)—N-[2-cyano-3-[[4-oxo-3-(3-phenylpropyl)quinazolin-6-yl]amino]phenyl]-3-fluoro-pyrrolidine-1-sulfonamide] were, in that order, 2.07 µM, 18.2 nM, 15.1 nM and 25.6 nM.
As for `CN(CCNC(=O)CCCn1cnc2ccc(Nc3cccc(NS(=O)(=O)N4CC[C@@H](F)C4)c3C#N)cc2c1=O)C(=O)OC(C)(C)C` [Example 45, tert-butyl N-[2-[4-[6-[2-cyano-3-[[(3R)-3-fluoropyrrolidin-1-yl]sulfonylamino]anilino]-4-oxo-quinazolin-3-yl]butanoylamino]ethyl]-N-methyl-carbamate], the EC50 in experiment [1] is at least 10 µM. Also, half-maximal inhibition in experiment [2] (IC50) was put at 814 nM. Further, the Kd at BRAF (wt) was 3.41 nM; on BRAF (V600E) it was 8.34 nM.
On to `CC(C)(C)OC(=O)N1CCC(CCn2cnc3ccc(Nc4cccc(NS(=O)(=O)N5CCCC5)c4C#N)cc3c2=O)CC1` [Example 46, tert-butyl 4-[2-[6-[2-cyano-3-(pyrrolidin-1-ylsulfonylamino)anilino]-4-oxo-quinazolin-3-yl]ethyl]piperidine-1-carboxylate], for which the midpoint of the response in experiment [1], the EC50, lay at 2.54 µM. In addition, in experiment [2], 20.6 nM corresponded to half-maximal inhibition (IC50). Further, the Kd at BRAF (wt) came to 21.2 nM; at BRAF (V600E), 73.5 nM.
